In US6737383B1, “Herbicidal oxadiazolidines” (priority 1999, dated 2004):

How the values were obtained:
bedstraw = assay: Test B pre/postemergence bedstraw; type: in vivo, Galium aparine
Procedure, shortened: (§1)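 Herbicidal effect was estimated by eye on a ten-point control scale after plants spent twelve to sixteen days in a greenhouse following soil or foliar treatment. Foliar sprays targeted plants at one to four leaves; all doses were formulated in a non-phytotoxic solvent with surfactant.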

blackgrass = assay: Test B pre/postemergence blackgrass; type: in vivo, Alopecurus myosuroides
Procedure, shortened: as §1

surinam grass = assay: Test B pre/postemergence surinam grass; type: in vivo, Brachiaria decumbens
Procedure, shortened: as §1

cocklebur = assay: Test B pre/postemergence cocklebur; type: in vivo, Xanthium strumarium
Procedure, shortened: as §1

corn = assay: Test B pre/postemergence corn; type: in vivo, Zea mays
Procedure, shortened: as §1

crabgrass = assay: Test B pre/postemergence crabgrass; type: in vivo, Digitaria sanguinalis
Procedure, shortened: as §1

giant foxtail = assay: Test B pre/postemergence giant foxtail; type: in vivo, Setaria faberii
Procedure, shortened: as §1

morningglory = assay: Test B pre/postemergence morningglory; type: in vivo, Ipomoea hederacea
Procedure, shortened: as §1

pigweed = assay: Test B pre/postemergence pigweed; type: in vivo, Amaranthus retroflexus
Procedure, shortened: as §1

rape = assay: Test B pre/postemergence rape; type: in vivo, Brassica napus
Procedure, shortened: as §1

soybean = assay: Test B pre/postemergence soybean; type: in vivo, Glycine max
Procedure, shortened: as §1

sugar beet = assay: Test B pre/postemergence sugar beet; type: in vivo, Beta vulgaris
Procedure, shortened: as §1

velvetleaf = assay: Test B pre/postemergence velvetleaf; type: in vivo, Abutilon theophrasti
Procedure, shortened: as §1

wheat = assay: Test B pre/postemergence wheat; type: in vivo, Triticum aestivum
Procedure, shortened: as §1

wild oat = assay: Test B pre/postemergence wild oat; type: in vivo, Avena fatua
Procedure, shortened: as §1

purple nutsedge = assay: Test B pre/postemergence purple nutsedge; type: in vivo, Cyperus rotundus
Procedure, shortened: as §1

[1] = Postemergence, Rate 62 g/ha, scale 0 to 10, 0 is no effect, 10 is complete control
[2] = Postemergence, Rate 125 g/ha, scale of 0 to 10 where 0 is no effect and 10 is complete control
[3] = Preemergence, Rate 250 g/ha, scale 0 (no effect) to 10 (complete control)
[4] = Rate 62 g/ha, Preemergence, scale 0 to 10
[5] = Rate 125 g/ha, Preemergence, scale 0 to 10 (0 no effect, 10 complete control)
[6] = Rate 500 g/ha, Preemergence, scale 0 to 10 (0 no effect, 10 complete control)
[7] = Postemergence, Rate 500 g/ha, scale 0 (no effect) to 10 (complete control)
[8] = Rate 250 g/ha, Postemergence, scale 0 to 10, 0 is no effect, 10 is complete control

## COc1ccc(N(C(=O)n2oc(=O)n(C(C)C)c2=O)C(C)C)cc1 [Compound 780]
bedstraw; [1]
  Plant response rating, Bedstraw: 0
bedstraw; [2]
  Bedstraw plant response rating: 0
bedstraw; [3]
  Bedstraw plant response rating: 0
bedstraw; [4]
  Bedstraw plant response rating: 0
bedstraw; [5]
  Bedstraw plant response rating: 0
bedstraw; [6]
  Bedstraw plant response rating: 2
blackgrass; [1]
  Plant response rating, Blackgrass: 0
blackgrass; [2]
  Blackgrass plant response rating: 2
blackgrass; [7]
  Blackgrass plant response rating: 4
blackgrass; [3]
  Blackgrass plant response rating: 9
blackgrass; [4]
  Blackgrass plant response rating: 2
blackgrass; [5]
  Blackgrass plant response rating: 6
blackgrass; [8]
  Blackgrass plant response rating: 4
blackgrass; [6]
  Blackgrass plant response rating: 9
Surinam grass; [1]
  Plant response rating, B. signalgrass: 0
Surinam grass; [2]
  B. signalgrass plant response rating: 5
Surinam grass; [3]
  B. signalgrass plant response rating: 8
Surinam grass; Rate 62 g/ha, Preemergence, scale 0 (no effect) to 10 (complete control)
  B. signalgrass plant response rating: 6
Surinam grass; [5]
  B. signalgrass plant response rating: 6
Surinam grass; [8]
  B. signalgrass plant response rating: 5
Surinam grass; Rate 500 g/ha, Postemergence, scale 0 to 10, 0 is no effect, 10 is complete control
  B. signalgrass plant response rating: 5
Surinam grass; [6]
  B. signalgrass plant response rating: 4
cocklebur; [1]
  Plant response rating, Cocklebur: 0
cocklebur; [2]
  Cocklebur plant response rating: 0
cocklebur; [7]
  Cocklebur plant response rating: 0
cocklebur; [3]
  Cocklebur plant response rating: 2
cocklebur; [4]
  Cocklebur plant response rating: 0
cocklebur; [5]
  Cocklebur plant response rating: 0
cocklebur; [8]
  Cocklebur plant response rating: 0
cocklebur; [6]
  Cocklebur plant response rating: 2
corn; [1]
  Plant response rating, Corn: 0
corn; [2]
  Corn plant response rating: 0
corn; [7]
  Corn plant response rating: 6
corn; [3]
  Corn plant response rating: 6
corn; [4]
  Corn plant response rating: 2
corn; [5]
  Corn plant response rating: 2
corn; [8]
  Corn plant response rating: 3
corn; [6]
  Corn plant response rating: 9
crabgrass; [1]
  Plant response rating, Crabgrass: 3
crabgrass; [2]
  Crabgrass plant response rating: 4
crabgrass; [7]
  Crabgrass plant response rating: 7
crabgrass; [3]
  Crabgrass plant response rating: 10
crabgrass; [4]
  Crabgrass plant response rating: 10
crabgrass; [5]
  Crabgrass plant response rating: 10
crabgrass; [8]
  Crabgrass plant response rating: 7
crabgrass; [6]
  Crabgrass plant response rating: 10
Giant foxtail; [1]
  Plant response rating, Giant foxtail: 7
Giant foxtail; [2]
  Giant foxtail plant response rating: 8
Giant foxtail; [7]
  Giant foxtail plant response rating: 9
Giant foxtail; [3]
  Giant foxtail plant response rating: 10
Giant foxtail; [4]
  Giant foxtail plant response rating: 10
Giant foxtail; [5]
  Giant foxtail plant response rating: 10
Giant foxtail; [8]
  Giant foxtail plant response rating: 9
Giant foxtail; [6]
  Giant foxtail plant response rating: 10
morningglory; [1]
  Plant response rating, Morningglory: 4
morningglory; [2]
  Morningglory plant response rating: 4
morningglory; [7]
  Morningglory plant response rating: 8
morningglory; [4]
  Morningglory plant response rating: 0
morningglory; [5]
  Morningglory plant response rating: 0
morningglory; [8]
  Morningglory plant response rating: 7
morningglory; [6]
  Morningglory plant response rating: 2
pigweed; [1]
  Plant response rating, Redroot pigweed: 0
pigweed; [2]
  Redroot pigweed plant response rating: 0
pigweed; [7]
  Redroot pigweed plant response rating: 0
pigweed; [4]
  Redroot pigweed plant response rating: 0
pigweed; [5]
  Redroot pigweed plant response rating: 3
pigweed; [8]
  Redroot pigweed plant response rating: 0
pigweed; [6]
  Redroot pigweed plant response rating: 6
rape; [1]
  Plant response rating, Rape: 0
rape; [2]
  Rape plant response rating: 0
rape; [7]
  Rape plant response rating: 0
rape; [4]
  Rape plant response rating: 0
rape; [5]
  Rape plant response rating: 0
rape; [8]
  Rape plant response rating: 0
rape; [6]
  Rape plant response rating: 6
soybean; [1]
  Plant response rating, Soybean: 3
soybean; [7]
  Soybean plant response rating: 4
soybean; [4]
  Soybean plant response rating: 0
soybean; [5]
  Soybean plant response rating: 0
soybean; [8]
  Soybean plant response rating: 0
soybean; [6]
  Soybean plant response rating: 3
Sugar beet; [1]
  Plant response rating, Sugarbeets: 0
Sugar beet; [7]
  Sugarbeets plant response rating: 0
Sugar beet; [4]
  Sugarbeets plant response rating: 2
Sugar beet; [5]
  Sugarbeets plant response rating: 2
Sugar beet; [8]
  Sugarbeets plant response rating: 0
Sugar beet; [6]
  Sugarbeets plant response rating: 6
velvetleaf; [1]
  Plant response rating, Velvetleaf: 0
velvetleaf; [7]
  Velvetleaf plant response rating: 4
velvetleaf; [4]
  Velvetleaf plant response rating: 0
velvetleaf; [5]
  Velvetleaf plant response rating: 3
velvetleaf; [8]
  Velvetleaf plant response rating: 4
velvetleaf; [6]
  Velvetleaf plant response rating: 5
wheat; [1]
  Plant response rating, Wheat: 0
wheat; [7]
  Wheat plant response rating: 2
wheat; [4]
  Wheat plant response rating: 0
wheat; [5]
  Wheat plant response rating: 6
wheat; [8]
  Wheat plant response rating: 0
wheat; [6]
  Wheat plant response rating: 9
Wild oat; [1]
  Plant response rating, Wild oats: 0
Wild oat; [7]
  Wild oats plant response rating: 2
Wild oat; [4]
  Wild oats plant response rating: 0
Wild oat; [5]
  Wild oats plant response rating: 0
Wild oat; [8]
  Wild oats plant response rating: 2
Wild oat; [6]
  Wild oats plant response rating: 9
Purple nutsedge; [1]
  Plant response rating, Nutsedge: 0
Purple nutsedge; [2]
  Nutsedge plant response rating: 0
Purple nutsedge; [7]
  Nutsedge plant response rating: 4
Purple nutsedge; [4]
  Nutsedge plant response rating: 0
Purple nutsedge; [5]
  Nutsedge plant response rating: 0
Purple nutsedge; [8]
  Nutsedge plant response rating: 4
